Experimental data from patent publication US20240124432A1, “HERBICIDAL COMPOUNDS” (SYNGENTA CROP PROTECTION AG, priority 2020, published 2024).

Legend:
Type in all cases: in vivo
[1] = tested on: ECHCG; assay: Pre-emergence biological efficacy; conditions: Echinochloa crus-galli, 312 h, evaluated after 13 days, read-out: damage to plant (100=total damage to plant; 0=no damage to plant)
Description: (§1) Seeds of weeds and/or crops were sown in standard soil in pots. After cultivation for one day under controlled conditions in a glasshouse (at 24/19° C., day/night; 16 hours light), the plants were sprayed with an aqueous spray solution derived from the formulation of the technical active ingredient in a small amount of acetone and a special solvent and emulsifier mixture referred to as IF50 (11.12% Emulsogen EL360 TM+44.44% N-methylpyrrolidone+44.44% Dowanol DPM glycol ether), to create a 50g/l solution which was then diluted using 0.2% Genapol XO80 as diluent to give the desired final dose of test compound.
(§2) The test plants were then grown under controlled conditions in the glasshouse (at 24/18° C., day/night; 15 hours light; 50% humidity) and watered twice daily. After 13 days the test was evaluated (100=total damage to plant; 0=no damage to plant).

[2] = tested on: AMAPA; assay: Pre-emergence biological efficacy; conditions: Amaranthus palmeri, 312 h, evaluated after 13 days, read-out: damage to plant (100=total damage to plant; 0=no damage to plant)
Description: as §1, §2

[3] = tested on: EPHHL; assay: Pre-emergence biological efficacy; conditions: Euphorbia heterophylla, 312 h, evaluated after 13 days, read-out: damage to plant (100=total damage to plant; 0=no damage to plant)
Description: as §1, §2

[4] = tested on: SETFA; assay: Pre-emergence biological efficacy; conditions: Setaria faberi, 312 h, evaluated after 13 days, read-out: damage to plant (100=total damage to plant; 0=no damage to plant)
Description: as §1, §2

[5] = tested on: IPOHE; assay: Pre-emergence biological efficacy; conditions: Ipomoea hederacea, 312 h, evaluated after 13 days, read-out: damage to plant (100=total damage to plant; 0=no damage to plant)
Description: as §1, §2

[6] = tested on: LOLPE; assay: Pre-emergence biological efficacy; conditions: Lolium perenne, 312 h, evaluated after 13 days, read-out: damage to plant (100=total damage to plant; 0=no damage to plant)
Description: as §1, §2

[7] = tested on: ECHCG; assay: Post-emergence biological efficacy; conditions: Echinochloa crus-galli, 312 h, evaluated after 13 days, read-out: damage to plant (100=total damage to plant; 0=no damage to plant)
Description: as §1, with “14 days” for “one day”
(§3) The test plants were then grown under controlled conditions in the glasshouse (at 24/18° C., day/night; 15 hours light; 50% humidity)and watered twice daily. After 13 days the test was evaluated (100=total damage to plant; 0=no damage to plant).

[8] = tested on: CHEAL; assay: Post-emergence biological efficacy; conditions: Chenopodium album, 312 h, evaluated after 13 days, read-out: damage to plant (100=total damage to plant; 0=no damage to plant)
Description: as §1, with “14 days” for “one day”
as §3

[9] = tested on: AMAPA; assay: Post-emergence biological efficacy; conditions: Amaranthus palmeri, 312 h, evaluated after 13 days, read-out: damage to plant (100=total damage to plant; 0=no damage to plant)
Description: as §1, with “14 days” for “one day”
as §3

[10] = tested on: EPHHL; assay: Post-emergence biological efficacy; conditions: Euphorbia heterophylla, 312 h, evaluated after 13 days, read-out: damage to plant (100=total damage to plant; 0=no damage to plant)
Description: as §1, with “14 days” for “one day”
as §3

[11] = tested on: SETFA; assay: Post-emergence biological efficacy; conditions: Setaria faberi, 312 h, evaluated after 13 days, read-out: damage to plant (100=total damage to plant; 0=no damage to plant)
Description: as §1, with “14 days” for “one day”
as §3

[12] = tested on: IPOHE; assay: Post-emergence biological efficacy; conditions: Ipomoea hederacea, 312 h, evaluated after 13 days, read-out: damage to plant (100=total damage to plant; 0=no damage to plant)
Description: as §1, with “14 days” for “one day”
as §3

[13] = tested on: ELEIN; assay: Post-emergence biological efficacy; conditions: 312 h, evaluated after 13 days, read-out: damage to plant (100=total damage to plant; 0=no damage to plant)
Description: as §1, with “14 days” for “one day”
as §3

[14] = tested on: LOLPE; assay: Post-emergence biological efficacy; conditions: Lolium perenne, 312 h, evaluated after 13 days, read-out: damage to plant (100=total damage to plant; 0=no damage to plant)
Description: as §1, with “14 days” for “one day”
as §3

[15] = tested on: DIGSA; assay: Post-emergence biological efficacy; conditions: Digitaria sanguinalis, 312 h, evaluated after 13 days, read-out: damage to plant (100=total damage to plant; 0=no damage to plant)
Description: as §1, with “14 days” for “one day”
as §3

CCOC(=O)C1(C)CC(c2cc(-c3ccc(C(F)(F)F)cc3Cl)c(F)cc2Cl)=NO1 (stereo not drawn) [Compound 1-7, Ethyl 3-[2-chloro-5-[2-chloro-4-(trifluoromethyl)phenyl]-4-fluoro-phenyl]-5-methyl-4H-isoxazole-5-carboxylate]
pest or weed control at 250 g/ha [1]: 0% | pest or weed control at 250 g/ha [2]: 30% | pest or weed control at 250 g/ha [3]: 0% | pest or weed control at 250 g/ha [4]: 0% | pest or weed control at 250 g/ha [5]: 0% | pest or weed control at 250 g/ha [6]: 0% | pest or weed control at 250 g/ha [7]: 30% | pest or weed control at 250 g/ha [8]: 100% | pest or weed control at 250 g/ha [9]: 90% | pest or weed control at 250 g/ha [10]: 90% | pest or weed control at 250 g/ha [11]: 60% | pest or weed control at 250 g/ha [12]: 90% | pest or weed control at 250 g/ha [13]: 70% | pest or weed control at 250 g/ha [14]: 10% | pest or weed control at 250 g/ha [15]: 40%

CCOC(=O)C1(C)CC(c2cc(-c3ccccc3Cl)c(F)cc2Cl)=NO1 (stereo not drawn) [Compound 1-19, Ethyl 3-[2-chloro-5-(2-chlorophenyl)-4-fluoro-phenyl]-5-methyl-4H-isoxazole-5-carboxylate]
pest or weed control at 250 g/ha [1]: 0% | pest or weed control at 250 g/ha [2]: 0% | pest or weed control at 250 g/ha [3]: 0% | pest or weed control at 250 g/ha [4]: 0% | pest or weed control at 250 g/ha [5]: 0% | pest or weed control at 250 g/ha [6]: 0% | pest or weed control at 250 g/ha [7]: 20% | pest or weed control at 250 g/ha [8]: 90% | pest or weed control at 250 g/ha [9]: 90% | pest or weed control at 250 g/ha [10]: 90% | pest or weed control at 250 g/ha [11]: 40% | pest or weed control at 250 g/ha [12]: 80% | pest or weed control at 250 g/ha [13]: 20% | pest or weed control at 250 g/ha [14]: 10% | pest or weed control at 250 g/ha [15]: 20%

CCOC(=O)C1(C)CC(c2cc(-c3ccc(C)cc3Cl)c(F)cc2Cl)=NO1 (stereo not drawn) [Compound 1-31, Ethyl 3-[2-chloro-5-(2-chloro-4-methyl-phenyl)-4-fluoro-phenyl]-5-methyl-4H-isoxazole-5-carboxylate]
pest or weed control at 250 g/ha [1]: 0% | pest or weed control at 250 g/ha [2]: 30% | pest or weed control at 250 g/ha [3]: 10% | pest or weed control at 250 g/ha [4]: 0% | pest or weed control at 250 g/ha [5]: 0% | pest or weed control at 250 g/ha [6]: 0% | pest or weed control at 250 g/ha [7]: 30% | pest or weed control at 250 g/ha [8]: 100% | pest or weed control at 250 g/ha [9]: 100% | pest or weed control at 250 g/ha [10]: 80% | pest or weed control at 250 g/ha [11]: 50% | pest or weed control at 250 g/ha [12]: 90% | pest or weed control at 250 g/ha [13]: 70% | pest or weed control at 250 g/ha [14]: 20% | pest or weed control at 250 g/ha [15]: 30%

CCOC(=O)C1(C)CC(c2cc(-c3cccc(C(F)(F)F)n3)c(F)cc2Cl)=NO1 (stereo not drawn) [Compound 1-43, Ethyl 3-[2-chloro-4-fluoro-5-[6-(trifluoromethyl)-2-pyridyl]phenyl]-5-methyl-4H-isoxazole-5-carboxylate]
pest or weed control at 250 g/ha [1]: 0% | pest or weed control at 250 g/ha [2]: 20% | pest or weed control at 250 g/ha [3]: 0% | pest or weed control at 250 g/ha [4]: 0% | pest or weed control at 250 g/ha [5]: 0% | pest or weed control at 250 g/ha [6]: 0% | pest or weed control at 250 g/ha [7]: 20% | pest or weed control at 250 g/ha [8]: 80% | pest or weed control at 250 g/ha [9]: 80% | pest or weed control at 250 g/ha [10]: 20% | pest or weed control at 250 g/ha [11]: 90% | pest or weed control at 250 g/ha [12]: 60% | pest or weed control at 250 g/ha [13]: 70% | pest or weed control at 250 g/ha [14]: 0% | pest or weed control at 250 g/ha [15]: 30%
